Test results as given in US9249159B2, “Composition for treating hepatitis C virus, regulating phosphorylation of replicase” (Industry-Academic Cooperation Foundation, Yonsei University, priority 2011, dated 2016).

Tests used:
[1] = system: genotype 1b HCV subgenomic replicon (R-1 cell line); experiment: HCV replication (HCV RNA by real-time RT-PCR, NS5B protein by Western blot) in R-1 subgenomic replicon cells; type: cell-based, hepatitis C virus genotype 1b; settings: for decrease of HCV RNA titers with respect to DMSO control: R-1 cell line, 20 μM, 48 hours
Description: In order to check a PRK2 phosphorylation inhibition effect of the novel inhibitors obtained in Example 1, R-1 cell line harboring HCV subgenomic replicons was used.
The R-1 cell line was comprised of cis-acting RNA elements of 5′ and 3′-end untranslated regions (UTR) essential for replication of HCV RNA, a selection marker inserted to select a replicated RNA into a portion from which a structural protein coding site was removed, and a non-structural protein (NS3-NS5B)-coding gene required for replication. In the replicon, the selection marker was expressed by the HCV 5′-UTR and internal ribosome entry site (IRES) as a part of a coding gene of a core protein as a structural protein and capsid protein, and HCV non-structural proteins were expressed by IRES of EMCV. In order to obtain replicon cells, a HCV subgenomic replicon RNA was obtained by means of in vitro transcription by using a T7 RNA polymerase, free ribonucleotide was removed by using a spin column, and introduced into a hepatocellular carcinoma cell line by electroporation. In the presence of G418, a stable cell line, i.e. a cell line showing a resistance to G418 through replication of HCV subgenome, was obtained. Expression of the HCV non-structural proteins in this cell line was analyzed by Western blot to confirm that replication was being carried out, and the R-1 cell line was constructed. It was observed that an HCV RNA copy number was about 10^7 copies/mL by a quantitative real-time PCR analysis using a TaqMan probe. The R-1 cell line was a cell line in which HCV RNA replication was being carried out, and thus it could be used to evaluate an HCV replication inhibition effect of a PRK2 activity inhibitor.
Then, after the R-1 cell line was treated with each of 5 screened PRK2 inhibitors, HA1077 currently and clinically used as a PRK2 activity inhibitor, and Y27632 having a PRK2 activity inhibition effect at a final concentration of 20 μM for 48 hours, levels of HCV NS5B protein and HCV RNA in cell lysates (50 μg) were analyzed by Western blot and real-time RT-PCR.
(§1) To do so, after the two cell lines were treated with the compound #17 at higher concentrations (60 and 100 μM) than 20 μM for 48 hours, an HCV RNA genome level was checked by a real-time RT-PCR analysis. A value was a mean±standard deviation (SD) of three independent measurements. HCV RNA titer was quantified by real-time PCR analysis. Three independent experiments were performed in triplicate.
5 derivatives (#18 to #22: refer to FIG. 2) were produced based on the inhibitor #17 showing the best effect. After the R-1 cell line was treated with each of these inhibitors or HA1077 and Y27632 at a final concentration of 20 μM for 48 hours, an HCV RNA genome level was checked by a real-time RT-PCR analysis and expressed in % with respect to a control treated with DSMO. Three independent experiments were conducted repeatedly three times. Data were expressed by mean±SD of the three experiments.
(§2) Total RNA was extracted from R-1 or HCV (JFH1)-infected cells using TRIzol LS reagent (Invitrogen, Carlsbad, Calif., USA) and purified according to the manufacturer's instructions. HCV RNA levels were quantified by RT-PCR using a primer pair and TaqMan probe targeting a region within the HCV 5′-UTR as described previously. Cellular glyceraldehyde-3-phosphate dehydrogenase was used as an internal control. Assays were performed using the DyNAmo Probe 2-step qRT-PCR Kit (Finnzymes, Espoo, Finland) and a CHROMO4 continuous fluorescence detector (Bio-Rad, Hercules, Calif., USA), according to the manufacturer's instructions.
(§3) Therefore, anti-HCV activity of 17-DMAG in the R-1 cell was tested at a level lower than 50 nM. To do so, the R-1 cell was treated with a vehicle (0.25% DMSO) or 17-DMAG for 72 hours and the cell lysates (50 μg) and antibodies specific to the proteins were immunoblotted to measure levels of the proteins. An anti-α-tubulin antibody (lower end panel) was used as an internal loading control. […]

recombinant active PRK2 = recombinant active PRK2 (Homo sapiens, UniProt Q16513); experiment: In vitro kinase assay: recombinant PRK2 phosphorylating HCV NS5B; type: biochemical; settings: gamma-32P ATP and 100 μM ATP, autoradiography
Procedure: Then, in order to test an HCV NS5B protein phosphorylation inhibition effect of the screened novel PRK2 inhibitor, in vitro kinase assay was carried out.
Using a recombinant active PRK2 and purified HCV NS5B protein as substrates, the screened inhibitors #11 and #17 were treated in the presence of gamma-^32P ATP and 100 μM ATP. The reaction mixture was separated by SDS-PAGE (8% gel), and a result thereof was checked by autoradiography.
Finally, PRK2 and HCV NS5B phosphorylation inhibition effects of the compounds #18, #19, #20, #21 and #22 as the derivatives of the compound #17 were analyzed through in vitro kinase assay.
A 1 μM recombinant PRK2 and 10 μM HCV NS5B were phosphorylated for 30 minutes in the presence of 10 μCi γ-^32P ATP and 100 μM ATP. The reaction mixture was separated by SDS-PAGE (8% gel), and a result thereof was checked by autoradiography.

HCV NS5B = experiment: NS5B phosphorylation in Huh7TR-NS cell (anti-p-Ser immunoprecipitation, anti-NS5B immunoblot); type: cell-based, hepatitis C virus; settings: 17-DMAG 50 nM or HA1077 20 μM, 48 hours
Procedure: The human hepatoma stable cell lines Huh7TR-4 and Huh7TR-NS [17], which express the tetracycline repressor and the HCV NS proteins (NS3-NS5) in a tetracycline-inducible manner, respectively, were maintained in the presence of blasticidin S (10 μg/mlL and Zeocine (100 μg/mL). NS protein expression in Huh7TR-NS was induced by addition of 1 μg/mL tetracycline for 24 h. The Huh7 cell-derived cell line R-1, supporting stable, autonomous replication of genotype 1b HCV subgenomic replicon RNA, was described previously. 17-DMAG, the PRK2 inhibitor, HA1077, and the inhibitor of phosphatidylinositol 3-kinase (PI3K), LY294002, were obtained from Sigma-Aldrich (St. Louis, Mo., USA) and Calbiochem Inc. (La Jolla, Calif., USA), and Biomol (Plymouth Meeting, Pa., USA), respectively. IFN-α was purchased from Sigma-Aldrich (1-4276).
For co-immunoprecipitation experiment, the cells were resuspended in lysis buffer A (100 mM Tris-HCl, pH 8.0, 150 mM NaCl, 1% Triton X-100, 10 mM NaF, 1 mM Na3VO4, 17.5 mM β-glycerophosphate) supplemented with an EDTA-free protease inhibitor cocktail (Roche Applied Science, Indianapolis, Ind., USA) and incubated on ice for 30 min. […]
Then, treatment with 17-DMAG (50 nM) or HA1077 (20 μM), a PRK2 inhibitor, was carried out for 48 hours. […] A case without treatment with an inhibitor was expressed as (−).

[2] = system: genotype 2a HCV (JFH1)-infected Huh7 cells; experiment: HCV RNA level in Huh7 cells infected with HCV (JFH1); type: cell-based, hepatitis C virus genotype 2a; settings: JFH1-infected Huh7 cell, 100 IU/mL alone, 72 hours
Procedure: as §1
Full-length, infectious HCV RNA of the genotype 2a HCV clone JFH1 was prepared by in vitro transcription using the MEGAscript T7 kit (Ambion, Austin, Tex., USA) and electroporated into Huh7 cells as described previously. Briefly, at 72 h post electroporation, culture medium was collected, cleared by low-speed centrifugation, and passed through a 0.45-μm filter (Millipore, Billerica, Mass., USA) before being used for infection of Huh7 cells. Cells were infected with HCV at a multiplicity of infection of 0.3 by adsorption for 3 h with periodic rocking, then washed three times with phosphate-buffered saline (PBS) and maintained in complete DMEM. […]
as §2, with “Cellular glyceraldehyde-3-phosphate dehydrogenase was used as an internal control.” left out
In order to analyze whether or not 17-DMAG can inhibit replication in a cell infected with HCV, an experiment was carried out with the genotype 2a HCV infectious clone JFH1, which produces infectious virions in Huh7 or Huh7-derived cell lines. […] After 72 hours, total cellular RNA was extracted and HCV remaining in the infected cell was analyzed by quantitative RT-PCR.

PRK2 [3] = experiment: PRK2 level in Huh7 cell by immunoblotting; type: cell-based; settings: 100 IU/ml IFN-α
PRK2 [4] = molecular target: T1, PRK2 (Homo sapiens, UniProt Q16513); experiment: PRK2 phosphorylation (Thr816) and PRK2 level in R-1 cells by Western blot; type: cell-based; settings: R-1 cell, 100 IU/ml, hourly for 6 hours
T1 construct: endogenous in cells; host or cells: R-1 (Huh7-derived HCV replicon cells) and Huh7
Procedure: After the R-1 cell line was treated with the PRK2 inhibitor at a final concentration of 10 or 20 μM for 48 hours, phosphorylation or not of Thr^816 residue essential for activity of PRK2 was analyzed by Western blot using a phospho-PRK2 antibody to measure an expression level of phosphorylated PRK2. Immunoblotting using an anti-α-tubulin antibody was carried out to check whether or not the same amount of protein was loaded.
Then, in order to check whether or not IFN-α affected a PDK1-PRK2 signaling pathway, the R-1 cell was treated with 100 IU/ml of IFN-α hourly for 6 hours. SDS-PAGE was carried out to the cell lysates, and immunoblotting was carried out. The immunoblotting with anti-α-tubulin antibody was used as an internal control for loading. A representative result from one of the three independent experiments showing a similar result was illustrated.

PDK1 = PDK1 level and activation in R-1 cell by immunoblotting; type: cell-based; settings: 100 IU/ml, hourly for 6 hours
Description: Total cell lysates from cells treated with inhibitors or IFN-α by using antibodies to PDK1, p-PDK1 (S241), PRK2, and p-PRK2 (T816) (products of Cell Signaling Technology, Inc., Beverly, Mass., USA) was used for immunoblotting. In order to detect PKC isoforms α, β, and γ, a polyclonal antibody to a consensus sequence present in three PKC (protein kinase C) isoforms α, β and γ (anti-pan-PKC; Zymed Laboratories, San Francisco, Calif., USA) was used. An anti-α-tubulin antibody (Oncogene Research Products, Cambridge, Mass., USA) was carried out in immunoblotting for checking whether or not the same amount of protein was loaded.
as §3, with “control. The levels of the proteins were measured by densitometric analysis of immunoblot, and the phosphorylated amounts and relative intensities calculated with respect to PDK1 and PDK2 were converted with respect to α-tubulin signals and then quantitated. As a result of three independent experiments showing similar results, a representative blot picture was illustrated.” for “control.”

Sequence of recombinant active PRK2 (Q16513 whole entry): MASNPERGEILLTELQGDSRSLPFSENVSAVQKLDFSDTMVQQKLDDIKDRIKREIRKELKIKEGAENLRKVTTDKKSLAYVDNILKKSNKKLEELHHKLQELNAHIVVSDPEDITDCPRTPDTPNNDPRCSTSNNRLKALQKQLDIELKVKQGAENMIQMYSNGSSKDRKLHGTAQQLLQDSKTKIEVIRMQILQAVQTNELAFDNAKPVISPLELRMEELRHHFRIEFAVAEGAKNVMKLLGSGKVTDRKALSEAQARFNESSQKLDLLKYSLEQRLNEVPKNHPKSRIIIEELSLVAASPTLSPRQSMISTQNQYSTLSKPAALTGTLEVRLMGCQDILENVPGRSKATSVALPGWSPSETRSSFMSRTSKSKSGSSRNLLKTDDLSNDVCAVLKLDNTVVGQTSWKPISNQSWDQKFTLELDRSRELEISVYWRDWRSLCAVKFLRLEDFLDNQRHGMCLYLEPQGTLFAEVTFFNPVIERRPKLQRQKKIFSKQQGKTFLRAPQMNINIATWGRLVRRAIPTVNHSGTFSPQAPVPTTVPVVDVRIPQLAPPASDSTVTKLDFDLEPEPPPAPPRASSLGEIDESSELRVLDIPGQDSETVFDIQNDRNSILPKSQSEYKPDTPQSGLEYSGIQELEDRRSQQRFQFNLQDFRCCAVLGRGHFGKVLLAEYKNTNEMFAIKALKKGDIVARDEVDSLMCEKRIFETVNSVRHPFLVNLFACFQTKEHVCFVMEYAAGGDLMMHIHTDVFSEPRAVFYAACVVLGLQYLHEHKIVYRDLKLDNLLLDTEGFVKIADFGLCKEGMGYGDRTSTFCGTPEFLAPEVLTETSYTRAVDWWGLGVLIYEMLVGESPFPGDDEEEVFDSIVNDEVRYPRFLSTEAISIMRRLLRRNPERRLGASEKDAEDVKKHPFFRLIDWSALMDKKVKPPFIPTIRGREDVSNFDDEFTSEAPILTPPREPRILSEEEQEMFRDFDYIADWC
T1 sequence (Q16513 whole entry): as above

## C[C@@H](N)[C@H]1CC[C@H](C(=O)Nc2ccncc2)CC1 [Y27632]
[1]
  decrease of HCV RNA titers with respect to DMSO control: 49%

## O=C(Nc1ccc2[nH]cnc2c1)C1CCCCC1 [compound #11, cyclohexanecarboxylic acid (1H-benzoimidazole-5-yl)-amide]
Recombinant active PRK2
  inhibition of in vitro phosphorylation of HCV NS5B protein: inhibit phosphorylation of HCV NS5B protein

## O=C(Nc1ccncc1)c1ccc[nH]c1=O [compound 20, 2-oxo-N-(4-pyridinyl)-1,2-dihydro-3-pyridinecarboxamide]
[1]
  decrease of HCV RNA titers with respect to DMSO control: approximately 60%

## O=S(=O)(c1cccc2cnccc12)N1CCCNCC1 [HA1077]
[1]
  decrease of HCV RNA titers with respect to DMSO control: 40%
[1]; R-1 cell, HA1077 20 μM combined with IFN-α 100 IU/ml
  anti-HCV activity in combined treatment with IFN-α: anti-HCV activity of IFN-α was improved
HCV NS5B
  NS5B phosphorylation: also inhibited NS5B phosphorylation

## IFN-α
[2]
  inhibition of virus RNA replication: about 90%
[1]; R-1 cell, 100 IU/ml alone, 72 hours
  decrease of content of HCV RNA: approximately 80%
PRK2 [3]
  PDK1 and PRK2 contents and activation: A similar result was observed
PRK2 [4]
  p-PRK2 content or PRK2 content: any significant change in p-PRK2 content or PRK2 content was not observed
PDK1
  activation of PDK1: any change in activation of PDK1 in the treated cell was not observed
